Experimental findings from patent publication US12404262B2 (priority 2021, dated 2025) are described below.

The conditions of the data set: 1.0% DMSO, 24-hour incubation at ambient temperature, maximum theoretical 100 μM; for pH 2 solubility: 0.1N HCl, first value of the cell; for pH 7 solubility: 1×PBS buffer (pH 7.4), second value of the cell.

Each structure is given as a SMILES string.

Take `CC(C)(C#Cc1ccc(-c2ccc(Cl)c3c(N(C(=O)OCCO)S(C)(=O)=O)nn(CC(F)(F)F)c23)c([C@H](Cc2cc(F)cc(F)c2)NC(=O)Cn2nc(C(F)(F)F)c3c2C(F)(F)[C@@H]2C[C@H]32)n1)S(C)(=O)=O` [Compound 99, 2-hydroxyethyl (4-chloro-7-(2-((S)-1-(2-((3bS,4aR)-5,5-difluoro-3-(trifluoromethyl)-3b,4,4a,5-tetrahydro-1H-cyclopropa[3,4]cyclopenta[1,2-c]pyrazol-1-yl)acetamido)-2-(3,5-difluorophenyl)ethyl)-6-(3-methyl-3-(methylsulfonyl)but-1-yn-1-yl)pyridin-3-yl)-1-(2,2,2-trifluoroethyl)-1H-indazol-3-yl)(methylsulfonyl)carbamate]: the “pH 2 solubility” value is listed as 1/1 μM and the “pH 7 solubility” value is reported as 1/1 μM.
Regarding `CC(C)(CO)NC(=O)N(c1nn(CC(F)(F)F)c2c(-c3ccc(C#CC(C)(C)S(C)(=O)=O)nc3[C@H](Cc3cc(F)cc(F)c3)NC(=O)Cn3nc(C(F)(F)F)c4c3C(F)(F)[C@@H]3C[C@H]43)ccc(Cl)c12)S(C)(=O)=O` [Compound 39, N—((S)-1-(3-(4-chloro-3-(N-((1-hydroxy-2-methylpropan-2-yl)carbamoyl)methylsulfonamido)-1-(2,2,2-trifluoroethyl)-1H-indazol-7-yl)-6-(3-methyl-3-(methylsulfonyl)but-1-yn-1-yl)pyridin-2-yl)-2-(3,5-difluorophenyl)ethyl)-2-((3bS,4aR)-5,5-difluoro-3-(trifluoromethyl)-3b,4,4a,5-tetrahydro-1H-cyclopropa[3,4]cyclopenta[1,2-c]pyrazol-1-yl)acetamide], the “pH 2 solubility” value is recorded as 1 μM and the “pH 7 solubility” value was 2 μM.
Consider `COC(=O)CN(C)C(=O)N(c1nn(CC(F)(F)F)c2c(-c3ccc(C#CC(C)(C)S(C)(=O)=O)nc3[C@H](Cc3cc(F)cc(F)c3)NC(=O)Cn3nc(C(F)(F)F)c4c3C(F)(F)[C@@H]3C[C@H]43)ccc(Cl)c12)S(C)(=O)=O` [Compound 43, methyl N-((4-chloro-7-(2-((S)-1-(2-((3bS,4aR)-5,5-difluoro-3-(trifluoromethyl)-3b,4,4a,5-tetrahydro-1H-cyclopropa[3,4]cyclopenta[1,2-c]pyrazol-1-yl)acetamido)-2-(3,5-difluorophenyl)ethyl)-6-(3-methyl-3-(methylsulfonyl)but-1-yn-1-yl)pyridin-3-yl)-1-(2,2,2-trifluoroethyl)-1H-indazol-3-yl)(methylsulfonyl)carbamoyl)-N-methylglycinate], for which the “pH 2 solubility” value is on record as 1/1 μM and the “pH 7 solubility” value is given as 1/1 μM.
Turning to `CC(C)(C#Cc1ccc(-c2ccc(Cl)c3c(N(C(=O)CN4CCN(C(=N)N)CC4)S(C)(=O)=O)nn(CC(F)(F)F)c23)c([C@H](Cc2cc(F)cc(F)c2)NC(=O)Cn2nc(C(F)(F)F)c3c2C(F)(F)[C@@H]2C[C@H]32)n1)S(C)(=O)=O` [Compound 8, 2-(4-carbamimidoylpiperazin-1-yl)-N-(4-chloro-7-(2-((S)-1-(2-((3bS,4aR)-5,5-difluoro-3-(trifluoromethyl)-3b,4,4a,5-tetrahydro-1H-cyclopropa[3,4]cyclopenta[1,2-c]pyrazol-1-yl)acetamido)-2-(3,5-difluorophenyl)ethyl)-6-(3-methyl-3-(methylsulfonyl)but-1-yn-1-yl)pyridin-3-yl)-1-(2,2,2-trifluoroethyl)-1H-indazol-3-yl)-N-(methylsulfonyl)acetamide], the “pH 2 solubility” value came out at 57 μM and the “pH 7 solubility” value is on record as 6 μM.
Turning to `CC(C)(C#Cc1ccc(-c2ccc(Cl)c3c(N(C(=O)C(N)=O)S(C)(=O)=O)nn(CC(F)(F)F)c23)c([C@H](Cc2cc(F)cc(F)c2)NC(=O)Cn2nc(C(F)(F)F)c3c2C(F)(F)[C@@H]2C[C@H]32)n1)S(C)(=O)=O` [Compound 10, N1-(4-chloro-7-(2-((S)-1-(2-((3bS,4aR)-5,5-difluoro-3-(trifluoromethyl)-3b,4,4a,5-tetrahydro-1H-cyclopropa[3,4]cyclopenta[1,2-c]pyrazol-1-yl)acetamido)-2-(3,5-difluorophenyl)ethyl)-6-(3-methyl-3-(methylsulfonyl)but-1-yn-1-yl)pyridin-3-yl)-1-(2,2,2-trifluoroethyl)-1H-indazol-3-yl)-N1-(methylsulfonyl)oxalamide], the “pH 2 solubility” value was 2/2 μM and the “pH 7 solubility” value is 2/2 μM.
Consider `CN(CCNC(=N)N)C(=O)N(c1nn(CC(F)(F)F)c2c(-c3ccc(C#CC(C)(C)S(C)(=O)=O)nc3[C@H](Cc3cc(F)cc(F)c3)NC(=O)Cn3nc(C(F)(F)F)c4c3C(F)(F)[C@@H]3C[C@H]43)ccc(Cl)c12)S(C)(=O)=O` [Compound 75, N—((S)-1-(3-(4-chloro-3-(N-((2-guanidinoethyl)(methyl)carbamoyl)methylsulfonamido)-1-(2,2,2-trifluoroethyl)-1H-indazol-7-yl)-6-(3-methyl-3-(methylsulfonyl)but-1-yn-1-yl)pyridin-2-yl)-2-(3,5-difluorophenyl)ethyl)-2-((3bS,4aR)-5,5-difluoro-3-(trifluoromethyl)-3b,4,4a,5-tetrahydro-1H-cyclopropa[3,4]cyclopenta[1,2-c]pyrazol-1-yl)acetamide], for which the “pH 2 solubility” value is listed as 16 μM and the “pH 7 solubility” value was 13 μM.
Take `CC(C)(C#Cc1ccc(-c2ccc(Cl)c3c(N(C(=O)NCCCCP(=O)(O)O)S(C)(=O)=O)nn(CC(F)(F)F)c23)c([C@H](Cc2cc(F)cc(F)c2)NC(=O)Cn2nc(C(F)(F)F)c3c2C(F)(F)[C@@H]2C[C@H]32)n1)S(C)(=O)=O` [Compound 55, (4-(3-(4-chloro-7-(2-((S)-1-(2-((3bS,4aR)-5,5-difluoro-3-(trifluoromethyl)-3b,4,4a,5-tetrahydro-1H-cyclopropa[3,4]cyclopenta[1,2-c]pyrazol-1-yl)acetamido)-2-(3,5-difluorophenyl)ethyl)-6-(3-methyl-3-(methylsulfonyl)but-1-yn-1-yl)pyridin-3-yl)-1-(2,2,2-trifluoroethyl)-1H-indazol-3-yl)-3-(methylsulfonyl)ureido)butyl)phosphonic acid]: the “pH 2 solubility” value is recorded as 1 μM and the “pH 7 solubility” value worked out at 13 μM.
Turning to `CC(C)(C#Cc1ccc(-c2ccc(Cl)c3c(N(C(=O)OCCOP(=O)(O)O)S(C)(=O)=O)nn(CC(F)(F)F)c23)c([C@H](Cc2cc(F)cc(F)c2)NC(=O)Cn2nc(C(F)(F)F)c3c2C(F)(F)[C@@H]2C[C@H]32)n1)S(C)(=O)=O` [Compound 100, 2-(phosphonooxy)ethyl (4-chloro-7-(2-((S)-1-(2-((3bS,4aR)-5,5-difluoro-3-(trifluoromethyl)-3b,4,4a,5-tetrahydro-1H-cyclopropa[3,4]cyclopenta[1,2-c]pyrazol-1-yl)acetamido)-2-(3,5-difluorophenyl)ethyl)-6-(3-methyl-3-(methylsulfonyl)but-1-yn-1-yl)pyridin-3-yl)-1-(2,2,2-trifluoroethyl)-1H-indazol-3-yl)(methylsulfonyl)carbamate], the “pH 2 solubility” value is on record as 2 μM and the “pH 7 solubility” value stood at 100 μM.
With `COC(=O)N(c1nn(CC(F)(F)F)c2c(-c3ccc(C#CC(C)(C)S(C)(=O)=O)nc3[C@H](Cc3cc(F)cc(F)c3)NC(=O)Cn3nc(C(F)(F)F)c4c3C(F)(F)[C@@H]3C[C@H]43)ccc(Cl)c12)S(C)(=O)=O` [Compound 89, methyl (4-chloro-7-(2-((S)-1-(2-((3bS,4aR)-5,5-difluoro-3-(trifluoromethyl)-3b,4,4a,5-tetrahydro-1H-cyclopropa[3,4]cyclopenta[1,2-c]pyrazol-1-yl)acetamido)-2-(3,5-difluorophenyl)ethyl)-6-(3-methyl-3-(methylsulfonyl)but-1-yn-1-yl)pyridin-3-yl)-1-(2,2,2-trifluoroethyl)-1H-indazol-3-yl)(methylsulfonyl)carbamate], the “pH 2 solubility” value is listed as 3/3 μM and the “pH 7 solubility” value was 3/3 μM.
In the case of `C[C@@H](CNC(=O)N(c1nn(CC(F)(F)F)c2c(-c3ccc(C#CC(C)(C)S(C)(=O)=O)nc3[C@H](Cc3cc(F)cc(F)c3)NC(=O)Cn3nc(C(F)(F)F)c4c3C(F)(F)[C@@H]3C[C@H]43)ccc(Cl)c12)S(C)(=O)=O)OP(=O)(O)O` [Compound 35, (S)-1-(3-(4-chloro-7-(2-((S)-1-(2-((3bS,4aR)-5,5-difluoro-3-(trifluoromethyl)-3b,4,4a,5-tetrahydro-1H-cyclopropa[3,4]cyclopenta[1,2-c]pyrazol-1-yl)acetamido)-2-(3,5-difluorophenyl)ethyl)-6-(3-methyl-3-(methylsulfonyl)but-1-yn-1-yl)pyridin-3-yl)-1-(2,2,2-trifluoroethyl)-1H-indazol-3-yl)-3-(methylsulfonyl)ureido)propan-2-yl dihydrogen phosphate], the “pH 2 solubility” value worked out at 1 μM and the “pH 7 solubility” value amounted to 14 μM.
As to `CC(C)(C#Cc1ccc(-c2ccc(Cl)c3c(N(C(=O)O[C@H]4C[C@@H](NC(=N)N)C4)S(C)(=O)=O)nn(CC(F)(F)F)c23)c([C@H](Cc2cc(F)cc(F)c2)NC(=O)Cn2nc(C(F)(F)F)c3c2C(F)(F)[C@@H]2C[C@H]32)n1)S(C)(=O)=O` [Compound 127, cis-3-guanidinocyclobutyl (4-chloro-7-(2-((S)-1-(2-((3bS,4aR)-5,5-difluoro-3-(trifluoromethyl)-3b,4,4a,5-tetrahydro-1H-cyclopropa[3,4]cyclopenta[1,2-c]pyrazol-1-yl)acetamido)-2-(3,5-difluorophenyl)ethyl)-6-(3-methyl-3-(methylsulfonyl)but-1-yn-1-yl)pyridin-3-yl)-1-(2,2,2-trifluoroethyl)-1H-indazol-3-yl)(methylsulfonyl)carbamate], the “pH 2 solubility” value is recorded as 8 μM and the “pH 7 solubility” value stood at 1 μM.
